Experimental data taken from paper PMC12830989, “Subcellular glycan-mannose receptor binding kinetics correlate with myeloid cell function” (Nature Communications, 2025).
Values joined by “and” are separate entries in the source; they are usually repeats but may differ in a detail not shown here. Equal values may be shown once. sCy5 = sulfo-Cy5

Tests used:
[1] = tested on: bone-marrow derived mouse dendritic cells (BMDCs); test: Glyco-PAINT-APP single-molecule glycan binding on live WT BMDC; conditions: for koff−1 / kon: Suppl. Fig 9, glycan SLP, median; for population of squares with binding events of high mobility (high diffusion coefficient) and low event density (kon), uniquely present for WT cells: WT BMDC versus MR-/- BMDC, Fig 4a, b; for event density, dwell time and diffusion coefficient after CytD treatment: Cytochalasin D treated versus untreated
Method: Single molecule imaging was performed on a Nikon Ti2 N-STORM system equipped with TIRF module, Z piezo element, perfect focus system for axial drift correction and an OkoLab incubator with temperature and CO2 controller (37 °C and 5% CO2) for live-cell imaging. Recordings were acquired using the 647 nm excitation laser (160 mW, 1.9 kW/cm^2). Upon laser excitation, fluorescence was collected by a 100x 1.49 NA oil-immersion objective, passed through a quad-band dichroic mirror (97335 Nikon), and detected by a Hamamatsu ORCA Flash 4.0 CMOS camera with 160 nm pixel size. The signal was collected using the following settings: 512 × 512 pixel region, no binning, pixel depth 16-bit, exposure time 50 ms, live-cell observation and 2D-STORM (lens out), zoom 1x, lens x0.4, and for live-cell observation at 37 °C, the correction collar was set to position 8160.
5 x 10^4 CHO-MR or 1 x 10^5 WT, MR^−/− BMDC or BMDM were seeded in 8-well glass-bottomed microscopy slides (Ibidi, 80827) in complete medium. After equilibration in the microscope incubator, fluorescent glycan was added at 5 nM for CHO-MR and 10 nM for BMDC or BMDM experiments. Then, cells were brought into focus using brightfield illumination and 2000 frames (at 50 ms intervals) were recorded within a single field-of-view at 40–60% of maximum 647 nm laser power using TIRF illumination. For indicated experiments, Cytochalasin D (Focus Biomolecules) was added to a final concentration of 10 µM for 30 min prior to acquisition.
Processing of recordings using Glyco-PAINT-APP was performed as described in a step-by-step procedure in the Supplementary Software Manual in the Supplementary Information and accompanying Supplementary Videos 1 and 2. For the TrackMate processing, a batch file (Experiment Info.csv) containing the experiment metadata and tracking parameters was created. Threshold values were set to 5, 10 or 15 such that no more than 1.500.000 spots were detected. Recordings were then processed in TrackMate using the ‘Run TrackMate Batch’ plugin provided by the Glyco-PAINT-APP. Through this plugin, spot detection and tracking by TrackMate[70] was performed as indicated in the batch file using the Simple LAP tracker algorithm with a maximum frame gap of 3, a max linking distance of 0.6 μm and a gap closing max distance of 1.2 μm. Tracks with only two spots were discarded. For the parameter sensitivity analysis, each tracking or spot detection was varied as indicated, whilst the others were kept at aforementioned values (Basis scenario).
With the Glyco-PAINT-APP utility ‘Generate Squares’, a grid of squares was overlaid, and kinetic properties for each square were calculated. Default parameters for grid processing are (deviations are mentioned in figure captions): Nr of Squares in row 20, Minimum Tracks to Calculate Tau 20, Min allowable R Squared 0.1, Min Required Density Ratio 2, Maximum Allowable Variability 10 and Neighbour Mode Free.
For every recording, a background track count was calculated by averaging the track count of the 40 (10% of the total number of squares) least dense squares. Only squares for which the track count exceeded the Min Required Density Ratio of 2 were considered (and the remaining ignored as background). For each square, the variability was calculated and only squares for which the variability was less than the Maximum Allowable Variability of 10 were considered. For squares meeting both the Minimum Required Density Ratio and Maximum Allowable Variability criteria, and containing at least the Minimum Tracks to Calculate Tau kinetic parameters, including kon, koff and MSD were calculated as in Riera et al.[10], or copied from the TrackMate Tracks table output (for velocity, displacement, and track duration).

[2] = tested on: WT BMDC with OT-I T cells; test: T cell proliferation assay (cross-presentation to OT-I T cells), WT BMDC; assay type: cell-based, mouse; conditions: Fig 4f source data; 40 nM SLP pulse 2 h, MPLA-matured BMDC, 3 d coculture with OT-I; per experiment, two technical replicates
Method: A 70 µm filter was placed on a 50 mL tube and pre-wetted with PBS supplemented with 2 mM EDTA and 2% FCS (single-cell suspension buffer, SCSB). Freshly harvested spleens from OT-I transgenic mice were placed on the filter and disrupted with the back end of a syringe. After thorough washing, the suspension was centrifuged (10 min., 300 rcf, rt). Next, the pellet was gently resuspended in 2 mL of ACK lysing buffer (Gibco, A1049201). After 3 min incubation, the suspension was diluted with 10 mL PBS, filtered once more, and centrifuged again (300 rcf, 10 min, rt). The pellet was resuspended and subjected to magnetically-activated depletion of non-target cells using the “Naïve CD8a+ T cell isolation Kit” (Miltenyi, 130-096-543) according to manufacturer’s protocol. The obtained T cells were counted and resuspended at a density of 5-15 x 10^6/mL in 1 mL PBS with 5 µM CFSE (Biolegend) and incubated for 15 min. at 37 °C. After incubation, cells were spun down (10 min, 300 rcf, rt), washed once more with complete RPMI-1640 and were ready for downstream use.
5 x 10^4 WT, MR^−/− BMDC or 1 x 10^5 splenic DC were seeded in 96-well Nunc U-bottom plates (Thermo Scientific, 168136) and pulsed with Glycan SLP at 40 nM for indicated time. In indicated experiments, DC were pretreated with 1 µg/mL MPLA (Avanti, 699800 P) for 2 h before antigen pulse. After antigen pulse was finished, the plate was spun down for 3 min at 600 rcf, washed once with complete RPMI-1640 and 1-1.5E5 freshly isolated, CFSE-stained OT-I T cells were added to the pulsed DCs in 200 µL complete RPMI-1640 and incubated at 37 °C. After 3 d of coculture, the plate was spun down (3 min, 600 rcf, 4 °C) and supernatant was removed and stored at −80 °C. Cells were washed with FACS buffer (PBS with 2 mM EDTA, 2% FCS and 7.4 mM NaN3) and stained with Aqua Live/DEAD (Invitrogen, L34957, 1:500), TruStain FcX (Biolegend, 101319, 1:100), CD8a—APC (clone: 53-7.6, Biolegend, 100711, 1:200), and TCR V beta 5.1/5.2—eFluor450 (clone: MR9-4, eBioscience, 48-5796-82) for 30 min on ice, washed two times and acquired on a BD Fortessa I flow cytometer and analyzed using FlowJo v8. To calculate mean cycle, the CFSE dilution factor was obtained by dividing the MFI of the antigen pulsed condition by the DMSO pulsed condition expressed as Log2[69]. Statistical analysis and plotting were performed using GraphPad Prism V10.

Row | Substance | koff−1 ([1]; BMDC + CytD) [ms] | kon ([1]; BMDC + CytD) [evts μm−2 sec−1] | koff−1 ([1]; BMDC) [ms] | kon ([1]; BMDC) [evts μm−2 sec−1] | population of squares with binding events of high mobility (high diffusion coefficient) and low event density (kon), uniquely present for WT cells [1] | average number of cell divisions per T cell (mean cycles) [2] | event density, dwell time and diffusion coefficient after CytD treatment ([1]; BMDC)
1 | Ac-Lys(Man)-Gly-Lys(Man)-TEG-Asp-Glu-Val-Ser-Gly-Leu-Glu-Gln-Leu-Glu-Ser-Ile-Ile-Asn-Phe-Glu-Lys-Leu-Ala-Ala-Ala-Ala-Ala-Lys(sCy5)-NH2 ({Ac-K(Man)-Gly-K(Man)-TEG}-DEVSGLEQLESIINFEKLAAAAAK(sCy5)-NH2) [2 Mono(2), bivalent monomannosylated OVA SLP with sulfo-Cy5] | 81 | 3 | 96 | 2.4 | most prominent | 1.851 and 1.961 and 2.178 and 1.94 and 2.008 and 2.005 | 
2 | Ac-Lys(Man)-Lys(Man)-Lys(Man)-Lys(Man)-Lys(Man)-Lys(Man)-TEG-Asp-Glu-Val-Ser-Gly-Leu-Glu-Gln-Leu-Glu-Ser-Ile-Ile-Asn-Phe-Glu-Lys-Leu-Ala-Ala-Ala-Ala-Ala-Lys(sCy5)-NH2 ({Ac-K(Man)-K(Man)-K(Man)-K(Man)-K(Man)-K(Man)-TEG}-DEVSGLEQLESIINFEKLAAAAAK(sCy5)-NH2) [6 Mono(3), hexavalent monomannosylated OVA SLP with sulfo-Cy5] | 116 | 2 | 76 | 2.1 | most prominent | 1.958 and 1.615 and 1.514 and 1.427 and 1.57 and 1.31 | 
3 | Ac-Lys(Man)-TEG-Asp-Glu-Val-Ser-Gly-Leu-Glu-Gln-Leu-Glu-Ser-Ile-Ile-Asn-Phe-Glu-Lys-Leu-Ala-Ala-Ala-Ala-Ala-Lys(sCy5)-NH2 ({Ac-K(Man)-TEG}-DEVSGLEQLESIINFEKLAAAAAK(sCy5)-NH2) [1 Mono(1), monovalent monomannosylated OVA SLP with sulfo-Cy5] | 98 | 4.3 | 87 | 0.9 | not | 2.424 and 2.329 and 2.498 and 2.6657 and 2.752 and 2.248 | 
4 | Ac-Lys(triMan)-Gly-Lys(triMan)-TEG-Asp-Glu-Val-Ser-Gly-Leu-Glu-Gln-Leu-Glu-Ser-Ile-Ile-Asn-Phe-Glu-Lys-Leu-Ala-Ala-Ala-Ala-Ala-Lys(sCy5)-NH2 (DEVSGLEQLESIINFEKLAAAAAK; two Lys(triMan), TEG, sulfo-Cy5, C-amide; printed: Asp-Glu-Val-Ser-Gly-Leu-Glu-Gln-Leu-Glu-Ser-Ile-Ile-Asn-Phe-Glu-Lys-Leu-Ala-Ala-Ala-Ala-Ala-Lys) [2 Tri(5), bivalent trimannosylated OVA SLP with sulfo-Cy5] | 112 | 7 | 69 | 1.1 | not | 0.8018 and 0.6166 and 1.144 and 1.271 and 1.393 and 1.229 | increased significantly
5 | Ac-Lys(triMan)-Lys(triMan)-Lys(triMan)-Lys(triMan)-Lys(triMan)-Lys(triMan)-TEG-Asp-Glu-Val-Ser-Gly-Leu-Glu-Gln-Leu-Glu-Ser-Ile-Ile-Asn-Phe-Glu-Lys-Leu-Ala-Ala-Ala-Ala-Ala-Lys(sCy5)-NH2 (DEVSGLEQLESIINFEKLAAAAAK; six Lys(triMan), TEG, sulfo-Cy5, C-amide; printed: Asp-Glu-Val-Ser-Gly-Leu-Glu-Gln-Leu-Glu-Ser-Ile-Ile-Asn-Phe-Glu-Lys-Leu-Ala-Ala-Ala-Ala-Ala-Lys) [6 Tri(6), hexavalent trimannosylated OVA SLP with sulfo-Cy5] | 74 | 1.6 | 68 | 2.3 | most prominent | 0.3003 and 0.3873 and 0.4343 and 0.4095 and 0.438 | 
6 | Ac-Lys(triMan)-TEG-Asp-Glu-Val-Ser-Gly-Leu-Glu-Gln-Leu-Glu-Ser-Ile-Ile-Asn-Phe-Glu-Lys-Leu-Ala-Ala-Ala-Ala-Ala-Lys(sCy5)-NH2 (DEVSGLEQLESIINFEKLAAAAAK; Ac-Lys(triMan)-TEG, sulfo-Cy5, C-amide; printed: Asp-Glu-Val-Ser-Gly-Leu-Glu-Gln-Leu-Glu-Ser-Ile-Ile-Asn-Phe-Glu-Lys-Leu-Ala-Ala-Ala-Ala-Ala-Lys) [1 Tri(4), monovalent trimannosylated OVA SLP with sulfo-Cy5] | 124 | 1.5 | 88 | 1 |  | 1.87 and 1.461 and 1.875 and 1.671 and 1.661 and 1.884 | increased significantly
